# Assays:
# HeLaS3 cells = experiment: Growth Inhibitory Effect against HeLaS3 Cells; format: cell-based; details: Homo sapiens, HeLa S3; 72 hours, Neutral Red staining
# Experimental: HeLaS3 cells were suspended in a medium comprising MEM medium, 10% fetal calf serum and 2 mM glutamine (hereinafter referred to as medium A) to a concentration of 3×10^4 cells/ml. The cell suspension thus prepared was put into wells of a 96-well microtiter plate in an amount of 0.1 ml per well. After incubation at 37° C. for 20 hours in a CO2 incubator, Compound (I) appropriately diluted with medium A was added to each well in an amount of 0.05 ml.
# The cells were further cultured at 37° C. for 72 hours in the CO2 -incubator and the culture supernatant was removed. After the residue was washed once with phosphate buffer saline (PBS), a medium comprising medium A and 0.02% Neutral Red was added in an amount of 0.1 ml per well. Then, the cells were cultured at 37° C. for one hour in the CO2 -incubator, whereby the cells were stained. After removal of the culture supernatant, the residue was washed once with physiological saline. The pigment was extracted with 0.001N hydrochloric acid/30% ethanol and the absorbance of the extract was measured at 550 nm using a microplate reader. The concentration of the test compound at which the growth of the cells is inhibited by 50% (IC50) was calculated by comparing the absorbance of untreated cells with those of the cells treated with the test compound at known concentrations.
# ddY-strain male mice = experiment: Acute Toxicity Test; format: in vivo; details: intravenous; mortality observed for 14 days
# Experimental: A test compound was intravenously administered to ddY-strain male mice each weighing 20±1 g. MLD (the minimum lethal dose) was determined by observing the mortality for 14 days after the administration.
# Sarcoma 180 tumor = experiment: Therapeutic Effect against Sarcoma 180 Tumor; format: in vivo, male ddY-strain mice; details: intravenous, single administration one day after implantation, determined seven days after implantation
# Experimental: Five male ddY-strain mice each weighing 18 to 20 g were used for each group as test animals, and 5×10^5 Sarcoma 180 tumor cells were implanted subcutaneously into the animals at the axilla. One day after the implantation, 0.2 ml of physiological saline containing Compound (I) at the concentration indicated in Table 2 was intravenously administered to each mouse. T/C [T: average tumor volume (mm^3) of the group treated with the test compound, C: average tumor volume (mm^3) of the control group which received an intravenous administration of 0.2 ml of physiological saline]was determined seven days after the implant
# various bacteria = details: against various bacteria / a variety of bacteria; cited from earlier work
# melanoma B-16 = details: against melanoma B-16; cited from earlier work
SMILES,"Acute Toxicity (MLD), minimum lethal dose (ddY-strain male mice) [mg/kg]",antibacterial activity (various bacteria),antitumor activity (melanoma B-16),also measured
COC(=O)c1c(C)[nH]c2c1C13CC1CN(C(=O)/C=C/c1ccc(OC)cc1)C3=CC2=O (stereo not shown) [Compound 2],2.0,,,IC50 (HeLaS3 cells): 0.18 nM
COC(=O)c1c(C)[nH]c2c(OC(=O)N(C)C)cc3c(c12)C(CBr)CN3C(=O)/C=C/c1ccc(OC)cc1 (stereo not shown) [Compound 3],> 8.0,,,IC50 (HeLaS3 cells): 11 nM; T/C (average tumor volume treated / control) (Sarcoma 180 tumor; 8.0 mg/kg): 0.027
COC(=O)c1c(C)[nH]c2c(OC(=O)N3CCCCC3)cc3c(c12)C(CBr)CN3C(=O)/C=C/c1ccc(OC)cc1 (stereo not shown) [Compound 4],> 8.0,,,IC50 (HeLaS3 cells): < 0.24 nM
COC(=O)c1c(C)[nH]c2c(OC(=O)N3CCCC3)cc3c(c12)C(CBr)CN3C(=O)/C=C/c1ccc(OC)cc1 (stereo not shown) [Compound 5],> 8.0,,,
COC(=O)c1c(C)[nH]c2c(OC(=O)N3CCN(C)CC3)cc3c(c12)C(CBr)CN3C(=O)/C=C/c1ccc(OC)cc1 (stereo not shown) [Compound 7],8.0,,,T/C (average tumor volume treated / control) (Sarcoma 180 tumor; 4.0 mg/kg): 0.20
COC(=O)c1c(C)[nH]c2c(OC(=O)N3CCC(N4CCCCC4)CC3)cc3c(c12)C(CBr)CN3C(=O)/C=C/c1ccc(OC)cc1 (stereo not shown) [Compound 9],4.0,,,T/C (average tumor volume treated / control) (Sarcoma 180 tumor; 4.0 mg/kg): 0.17
COC(=O)c1c(C)[nH]c2c(OC(=O)N3CCN(CC(=O)NC(C)C)CC3)cc3c(c12)C(CBr)CN3C(=O)/C=C/c1ccc(OC)cc1 (stereo not shown) [Compound 11],> 8.0,,,T/C (average tumor volume treated / control) (Sarcoma 180 tumor; 8.0 mg/kg): 0.12
COC(=O)c1c(C)[nH]c2c(OC(=O)Nc3ccccc3)cc3c(c12)C(CBr)CN3C(=O)/C=C/c1ccc(OC)cc1 (stereo not shown) [Compound 12],2.0,,,T/C (average tumor volume treated / control) (Sarcoma 180 tumor; 2.0 mg/kg): 0.25
COC(=O)c1cc2c([nH]1)C(=O)C=C1N(C(=O)c3cc4cc(OC)c(OC)c(OC)c4[nH]3)CC3CC123 (stereo not shown) [DC113],,show an antibacterial activity against a variety of bacteria,exhibit an anti-tumor activity against melanoma B-16,
COC(=O)C1(C)NC2=C(C1=O)C13CC1CN(C(=O)c1cc4cc(OC)c(OC)c(OC)c4[nH]1)C3=CC2=O (stereo not shown) [DC-88A],,show an antibacterial activity against a variety of bacteria,exhibit an anti-tumor activity against melanoma B-16,
COC(=O)C1(C)Nc2c(O)cc3c(c2C1=O)C(CCl)CN3C(=O)c1cc2cc(OC)c(OC)c(OC)c2[nH]1 (stereo not shown) [DC-89A2],,exhibit an antibacterial activity against various bacteria,show an antitumor activity against melanoma B-16,
COC(=O)C1(C)Nc2c(O)cc3c(c2C1=O)CC(Cl)CN3C(=O)c1cc2cc(OC)c(OC)c(OC)c2[nH]1 (stereo not shown) [DC-89Al],,exhibit an antibacterial activity against various bacteria,show an antitumor activity against melanoma B-16,
COC(=O)C1(C)Nc2c(O)cc3c(c2C1=O)CC(Br)CN3C(=O)c1cc2cc(OC)c(OC)c(OC)c2[nH]1 (stereo not shown) [DC-89B1],,exhibit an antibacterial activity against various bacteria,show an antitumor activity against melanoma B-16,
COC(=O)C1(C)Nc2c(O)cc3c(c2C1=O)C(CBr)CN3C(=O)c1cc2cc(OC)c(OC)c(OC)c2[nH]1 (stereo not shown) [DC-89B2],,exhibit an antibacterial activity against various bacteria,show an antitumor activity against melanoma B-16,

# Source: patent publication US5258383A, “DC-89 derivatives” (priority 1991, dated 1993)
